Assay results: patent publication US20210308211A1, “METHOD OF TREATING VIRAL INFECTIONS” (priority 2020, published 2021)
“And” between values parts separate entries of the source, which are not always exact repeats. Equal entries are not always repeated. “Also recorded” adds a separate entry of the source. Non-standard residues stand in square brackets, D forms with d. Residues, ends and D or L forms follow the SMILES beside them. pS = N[C@@H](COP(=O)(O)O)C(=O)O

Columns and labels:
Type in all cases: in vivo, mouse
CD4+ T splenocytes = assay: Collagen-induced arthritis (CIA) DBA/1 mice, ex vivo T splenocyte proliferation with CII (CFSE, FACS)
Procedure: Next, P140 peptide was administered in a model of mice that develop a RA-like disease (we anticipated to use this mouse model as a negative control of MRL/lpr-lupus prone mice). This model, called collagen-induced arthritis (CIA) mouse model, is the most commonly studied autoimmune model of RA. In this model, autoimmune arthritis is induced by immunizing DBA/1 mice with an emulsion of complete Freund's adjuvant (CFA) and type II collagen (CII), and typically, the first signs of arthritis appear in 21-28 days after immunization (Brand et al., 2007). CIA shares several pathological features with human RA, and CII is a major protein in cartilage, the target tissue of RA. Pathological features include synovial hyperplasia, mononuclear cell infiltration, and cartilage degradation. Susceptibility in these mice is linked to the expression of specific MHC class II genes, DBA/1 have H-2^q haplotype.
P140 peptide was thus administrated intravenously to DBA/1 mice at day −1, +7, +14 and +20 in a setting close to the one we used in MRL/lpr mice (100 μg/injection/mouse). CII in CFA was injected at days +1 and +21 (200 μg, intradermal route). Mouse weight and their clinical score were followed using very classical procedure. Biological parameters were also evaluated (i.e. T cell response, antibody response, joint histology, etc).

Balb/c mice = assay: 15-day ovalbumin-induced airway hypereosinophilia model, BAL cell counts; details: for B cells / Eosinophils / Macrophages / Neutrophils / T cells / Total cells: per mouse
Procedure: The anti-inflammatory effect of the P140 phosphopeptide was evaluated when administered locally (intranasally) or systemically (intravenously) in a 15-day model of hypereosinophilic airway inflammation in mice.
The P140 phosphopeptide was solubilized in sterile water (Braun) and 10× concentrate sterile saline was added to adjust osmolarity to 300 mosm. Osmolarity was controlled with a micro osmometer (Löser, type 15) and validated (302 mosm).
The P140 phosphopeptide was used in vivo at the dose of 4 mg/kg by intranasal (i.n.) and intravenous (i.v.) routes. Control animals received equivalent volumes (1 ml/kg for i.n. and 2 ml/kg for i.v.) of saline (Table 6).
Nine-week-old male Balb/c mice were sensitized by intraperitoneal (i.p.) injections of a mixture containing 50 μg OVA (Sigma-Aldrich) and 2 mg alum (Sigma-Aldrich) in 0.1 ml saline. Mice were challenged by i.n. administration of 25 μl of OVA on day 5, then 25 μl of OVA and/or saline on day 12, 13 and 14. Mice were treated by i.v. injection (2 ml/kg) or i.n. administration (1 ml/kg) of P140 or solvent on day 9 (See FIG. 9).
BAL was performed twenty-four hours after […] challenge as described (Daubeuf, F. and Frossard, N. 2012. Performing Bronchoalveolar Lavage in the Mouse. Curr Protoc Mouse Biol 2:167-175). Mice were anaesthetized IP (Ketamine 150 mg/kg—Xylasine 10 mg/kg). Blood was collected from the heart, centrifuged at 10,000 g for 2 min and serum stored at −20° C. After semi-excision of the trachea, a plastic cannula was inserted, and airspace washed with 0.5 ml of 0.9% NaCl injected with a 1 ml syringe. This procedure was performed 10 times. The initial concentrated supernatant of the 2 first lavages (volume=2×0.5 ml administered, ˜0.5 ml recovered) was collected for cytokine measurements. The remaining BAL fluid was centrifuged (300 g for 5 min, 4° C.), and cell pellets pooled. The cell pellet was suspended in 500 μl of 0.9% NaCl and used for total cell counts evaluated on a Muse® Cell Analyser. Differential cell counts were assessed by flow cytometry (LSRII® cytometer, BD Bioscience). BAL cells were added with FCblock (0.5 μl, 553142, BD Bioscience) in a black microplate, incubated for 20 min at room temperature. Then, marker antibodies were added: CD11c-FITC (557400, BD bioscience), Gr-1-Pe-eFluor610 (61-5931-82, eBioscience), CD11b-APC-Cy7 (557657, BD bioscience), CD45-AlexaFluor700 (103128, BioLegend), CD3-BV605 (564009, BD bioscience), CD19-PE-Cy7 (552854, BD bioscience). Antibodies were incubated with BAL cells for 30 min at room temperature before DAPI (5 μl, BD bioscience) addition, and flow cytometry was performed immediately.
Data are presented as means±SEM. Differences between groups were tested for statistical significance using one-way ANOVA followed by Tukey's post-test. For statistical analysis, control groups 1, 2 and 3 were pooled.

MRL/lpr mice = assay: Survival analysis in MRL/lpr lupus mice; details: female MRL/lpr mice, intravenous, 20 mice per group; NaCl control 25 weeks
Procedure: It has been determined that this mouse strain carries a mutation in the fas gene. Also, the MRL/lpr is a useful model to study behavioural and cognitive deficits found in autoimmune diseases and the efficacy of immunosuppressive agents [Monneaux et al., 2003, Eur. J. Immunol. 33, 287-296].
Five-week-old female MRL/lpr mice received P140 or peptide P140(MO) intravenously as described (Monneaux et al., 2003, Eur. J. Immunol. 33, 287-296). All experimental protocols were carried out with the approval of the local Institutional Animal Care and Use Committee (CREMEAS). As control, mice were injected with NaCl.
Twenty mice were used for each peptide or NaCl.
Statistical tests were performed using GraphPad Prism version 5.0. The two-way ANOVA test was used to analyze statistical significance of proteinuria differences between control and peptide-treated groups of mice. Survival of control and P140 analogue-treated female MRL/lpr mice was analyzed by the Kaplan-Meier method, and the significance of differences was determined by the log-rank test. For the other variables, statistical significance was assessed using the Student's t-test. p values less than 0.05 were considered significant.

[1] = BAL, P140-IN (i.n. 4 mg/kg, day 9), OVA challenge
[2] = BAL, P140-IN (i.n. 4 mg/kg, day 9), saline challenge
[3] = BAL, P140-IV (i.v. 4 mg/kg, day 9), OVA challenge
[4] = BAL, P140-IV (i.v. 4 mg/kg, day 9), saline challenge

## CC[C@H](C)[C@H](NC(=O)[C@H](Cc1ccccc1)NC(=O)[C@H](C)NC(=O)[C@H](Cc1ccc(O)cc1)NC(=O)CNC(=O)[C@H](CCCNC(=N)N)NC(=O)[C@@H]1CCCN1C(=O)[C@H](CCCCN)NC(=O)CNC(=O)[C@H](COP(=O)(O)O)NC(=O)[C@H](CCCNC(=N)N)NC(=O)[C@H](CCCCN)NC(=O)[C@H](CO)NC(=O)[C@H](Cc1ccc(O)cc1)NC(=O)[C@@H](NC(=O)[C@H](CCSC)NC(=O)[C@H](Cc1c[nH]cn1)NC(=O)[C@@H](NC(=O)[C@@H](N)CCCNC(=N)N)[C@@H](C)CC)C(C)C)C(=O)N[C@@H](CCC(=O)O)C(=O)N[C@@H](Cc1ccc(O)cc1)C(=O)O [Compound P140] (H-RIHMVYSKR[pS]GKPRGYAFIEY-OH; N-terminus and C-terminus assumed)
CD4+ T splenocytes; DBA/1 CIA mice, 100 μg/injection i.v. day −1, +7, +14, +20, ex vivo 100 μg CII/mL
  CD4+ T splenocytes proliferation: strongly diminished
CD4+ T splenocytes; same conditions as CD4+ T cells
  CD8+ T cells proliferation: No effect
Balb/c mice; [1]
  B cells: 25606 and 32251 and 26562 and 23383 and 33156 and 13236
  Eosinophils: 490306 and 497948 and 737671 and 839841 and 792249 and 615171
  Macrophages: 271110 and 322340 and 247391 and 538954 and 436210 and 286509
  Neutrophils: 57542 and 60787 and 62354 and 95173 and 47346 and 65366
  T cells: 44036 and 61800 and 73159 and 118360 and 101951 and 61293
  Total cells: 862995 and 942875 and 1120576 and 1592328 and 1377755 and 1028339
Balb/c mice; [2]
  B cells: 112 and 242
  Eosinophils: 168 and 103
  Macrophages: 388102 and 434029
  Neutrophils: 56 and 61
  T cells: 4135 and 4180
  Total cells: 392461 and 438573
Balb/c mice; [3]
  B cells: 10219 and 15209 and 14027 and 17417 and 11003 and 10922
  Eosinophils: 425928 and 272763 and 473105 and 470027 and 327186 and 429469
  Macrophages: 439265 and 442055 and 244523 and 293070 and 342134 and 379565
  Neutrophils: 42783 and 21442 and 59616 and 76867 and 40275 and 31756
  T cells: 41744 and 43881 and 32677 and 55502 and 28857 and 45030
  Total cells: 949720 and 780142 and 809921 and 895467 and 738452 and 885821
Balb/c mice; [4]
  B cells: 70 and 266
  Eosinophils: 110 and 166
  Macrophages: 335658 and 335200
  Neutrophils: 259 and 133
  T cells: 5311 and 4790
  Total cells: 341738 and 340389
Balb/c mice; control mice challenged with saline, i.n. or i.v.
  Number of cells recovered in BAL fluid as compared to vehicle: little effect
Balb/c mice; i.n. route, 4 mg/kg, OVA challenge
  Inflammatory cell recruitment in BAL (in words): little effect; also recorded: without substantial effect
Balb/c mice; i.v. 4 mg/kg, OVA challenge, BAL, not significant
  Neutrophils recruitment, change vs OVA group: −38%
Balb/c mice; i.v. 4 mg/kg, OVA challenge, BAL, p<0.001
  Eosinophil recruitment, change vs OVA group: −50%
Balb/c mice; i.v. 4 mg/kg, OVA challenge, BAL, p<0.01
  T cells recruitment, change vs OVA group: −66%
Balb/c mice; i.v. 4 mg/kg, OVA challenge, BAL, p<0.05
  B cells recruitment, change vs OVA group: −42%
Balb/c mice; i.v. administration 4 mg/kg, OVA challenge
  Anti-inflammatory effect (in words): shows anti-inflammatory effect
MRL/lpr mice
  Median survival: 29 weeks
